The target in data set [1] is T1, DNA topoisomerase 2-alpha (Homo sapiens, UniProt P11388). Put plainly: Inhibition of human DNA topoisomerase 2 alpha assessed as relaxation of supercoiled plasmid pNO1 DNA incubated for 30 mins by fluorescence based analysis.
Data set [2] concerns the target T1, DNA topoisomerase 2-alpha. In words: Inhibition of human DNA topoisomerase 2 alpha assessed as ATP hydrolysis measured for 30 mins by absorbance based assay.
Data set [3] in a line: Thermodynamic aqueous solubility of compound in PBS buffer at pH 7.4 at 25 degreeC measured after 24 hrs by UPLC analysis. Format: physicochemical. The note with it: read-out: Therm_solubility.
Data set [4] is described as follows: Metabolic stability in rat liver S9 fraction assessed as half life at 100 uM measured upto 120 mins in presence of NADPH by HPLC analysis. It is filed as ADME, subcellular.
The test system of the next data set is COLO 205. Put plainly: Cytotoxicity against human COLO 205 cells assessed as reduction in cell viability at 10 uM by MTT assay. It is filed as functional, cell-based.
The subject of a further data set is HCC 2998. In words: Cytotoxicity against human HCC 2998 cells assessed as reduction in cell viability at 10 uM by MTT assay. It is filed as functional, cell-based. On the technique in general: Tetrazolium dyes change colour on reduction, which living cells bring about.
The next data set concerns HCT-116. In words: Cytotoxicity against human HCT-116 cells assessed as reduction in cell viability at 10 uM by MTT assay. It is filed as functional, cell-based.
The test system of the next data set is HCT-15. Put plainly: Cytotoxicity against human HCT-15 cells assessed as reduction in cell viability at 10 uM by MTT assay. Format: functional, cell-based.
For another data set, the system named is HT-29. Put plainly: Cytotoxicity against human HT-29 cells assessed as reduction in cell viability at 10 uM by MTT assay. Format: functional, cell-based.
A further data set has as its system KM12. Put plainly: Cytotoxicity against human KM12 cells assessed as reduction in cell viability at 10 uM by MTT assay. It is filed as functional, cell-based.
In the next data set the test system is SW-620. In words: Cytotoxicity against human SW620 cells assessed as reduction in cell viability at 10 uM by MTT assay. It is filed as functional, cell-based.
The subject of the next data set is CCRF-CEM. In words: Cytotoxicity against human CCRF-CEM cells assessed as reduction in cell viability at 10 uM by MTT assay. It is filed as functional, cell-based.
The subject of another data set is HL-60. In words: Cytotoxicity against human HL-60 cells assessed as reduction in cell viability at 10 uM by MTT assay. Format: functional, cell-based.
The next data set relates to K562. In words: Cytotoxicity against human K562 cells assessed as reduction in cell viability at 10 uM by MTT assay. It is filed as functional, cell-based.
Another data set deals with MOLT-4. In words: Cytotoxicity against human MOLT-4 cells assessed as reduction in cell viability at 10 uM by MTT assay. Format: functional, cell-based.
In the next data set the test system is SR. In words: Cytotoxicity against human SR cells assessed as reduction in cell viability at 10 uM by MTT assay. It is filed as functional, cell-based.
The target in another data set is DNA topoisomerase 2-beta (Homo sapiens, UniProt Q02880). In words: Inhibition of human DNA topoisomerase 2 beta assessed as relaxation of supercoiled plasmid pBR322 DNA incubated for 30 mins by ethidium bromide staining based agarose gel electrophoresis.
For another data set, the target named is T2, DNA topoisomerase 1 (Homo sapiens, UniProt P11387).
T2 sequence (P11387 whole entry): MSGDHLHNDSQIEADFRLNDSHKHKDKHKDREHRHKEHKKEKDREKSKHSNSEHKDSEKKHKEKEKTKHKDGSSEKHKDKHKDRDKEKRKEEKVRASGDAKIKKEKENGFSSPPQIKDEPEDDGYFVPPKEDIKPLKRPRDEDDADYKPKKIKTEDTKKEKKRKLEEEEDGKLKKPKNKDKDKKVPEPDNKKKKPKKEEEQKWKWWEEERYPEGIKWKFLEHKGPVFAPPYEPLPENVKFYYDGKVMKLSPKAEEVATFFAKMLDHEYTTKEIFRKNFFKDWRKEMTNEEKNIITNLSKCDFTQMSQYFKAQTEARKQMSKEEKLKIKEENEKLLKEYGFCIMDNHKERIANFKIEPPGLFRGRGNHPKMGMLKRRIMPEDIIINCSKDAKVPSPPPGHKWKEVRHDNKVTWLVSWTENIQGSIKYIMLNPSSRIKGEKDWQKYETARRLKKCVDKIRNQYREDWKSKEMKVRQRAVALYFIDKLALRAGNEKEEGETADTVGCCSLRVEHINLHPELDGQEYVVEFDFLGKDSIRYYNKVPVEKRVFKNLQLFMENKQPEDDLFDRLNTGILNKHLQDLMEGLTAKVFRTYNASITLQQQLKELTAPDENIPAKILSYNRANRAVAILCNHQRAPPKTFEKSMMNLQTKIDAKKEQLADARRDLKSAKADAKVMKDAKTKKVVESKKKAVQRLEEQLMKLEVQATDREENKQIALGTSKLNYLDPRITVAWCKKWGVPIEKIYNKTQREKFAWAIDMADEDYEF
In words: Inhibition of human DNA Topoisomerase 1 assessed as relaxation of supercoiled plasmid pBR322 DNA incubated for 30 mins by ethidium bromide staining based agarose gel electrophoresis.

Active and inactive are the calls of the source. A value given as a limit tells only on which side of the number the result lay.

What is called IC50 is the point on the concentration scale where inhibition reaches its midpoint. One may read the half-life as the time needed for the level to fall by half in the phase considered.

T1 sequence (P11388 whole entry): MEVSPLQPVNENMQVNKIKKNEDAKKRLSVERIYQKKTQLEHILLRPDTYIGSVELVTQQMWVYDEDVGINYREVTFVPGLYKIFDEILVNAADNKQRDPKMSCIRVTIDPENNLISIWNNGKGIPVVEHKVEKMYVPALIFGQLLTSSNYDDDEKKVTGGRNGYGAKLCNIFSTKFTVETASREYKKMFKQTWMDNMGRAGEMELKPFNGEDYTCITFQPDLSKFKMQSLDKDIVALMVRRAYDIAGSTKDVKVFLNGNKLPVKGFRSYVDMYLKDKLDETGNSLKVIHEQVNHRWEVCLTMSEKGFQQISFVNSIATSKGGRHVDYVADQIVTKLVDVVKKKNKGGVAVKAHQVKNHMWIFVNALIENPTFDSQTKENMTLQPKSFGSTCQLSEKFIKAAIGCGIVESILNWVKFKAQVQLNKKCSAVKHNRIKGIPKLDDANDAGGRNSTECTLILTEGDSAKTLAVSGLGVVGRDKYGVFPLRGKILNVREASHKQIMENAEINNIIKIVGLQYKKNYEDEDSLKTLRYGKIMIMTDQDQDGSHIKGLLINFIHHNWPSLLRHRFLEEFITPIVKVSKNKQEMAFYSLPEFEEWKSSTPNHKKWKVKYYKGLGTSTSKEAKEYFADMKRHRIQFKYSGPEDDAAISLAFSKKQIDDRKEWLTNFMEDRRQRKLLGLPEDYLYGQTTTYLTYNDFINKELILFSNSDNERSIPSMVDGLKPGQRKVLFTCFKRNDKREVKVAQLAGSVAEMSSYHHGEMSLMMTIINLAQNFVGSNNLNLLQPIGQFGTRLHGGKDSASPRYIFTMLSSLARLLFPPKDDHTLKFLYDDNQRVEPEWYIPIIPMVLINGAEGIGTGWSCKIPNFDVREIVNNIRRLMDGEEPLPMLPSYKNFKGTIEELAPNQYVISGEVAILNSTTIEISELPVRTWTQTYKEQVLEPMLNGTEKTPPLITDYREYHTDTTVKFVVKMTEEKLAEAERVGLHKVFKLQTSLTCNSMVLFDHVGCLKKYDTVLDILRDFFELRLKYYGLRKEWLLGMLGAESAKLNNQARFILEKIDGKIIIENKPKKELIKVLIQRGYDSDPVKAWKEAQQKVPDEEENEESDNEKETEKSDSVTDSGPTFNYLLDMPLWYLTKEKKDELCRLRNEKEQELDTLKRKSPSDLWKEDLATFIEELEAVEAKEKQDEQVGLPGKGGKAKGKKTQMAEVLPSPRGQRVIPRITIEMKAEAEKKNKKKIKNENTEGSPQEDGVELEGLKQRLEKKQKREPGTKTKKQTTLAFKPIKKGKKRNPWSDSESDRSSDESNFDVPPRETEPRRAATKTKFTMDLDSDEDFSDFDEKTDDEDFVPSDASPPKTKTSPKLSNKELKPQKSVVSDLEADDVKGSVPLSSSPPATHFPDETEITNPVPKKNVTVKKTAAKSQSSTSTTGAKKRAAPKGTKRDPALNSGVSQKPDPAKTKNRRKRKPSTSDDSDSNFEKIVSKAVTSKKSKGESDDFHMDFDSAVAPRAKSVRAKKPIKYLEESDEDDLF
Chain of DNA topoisomerase 2-beta (Q02880 whole entry): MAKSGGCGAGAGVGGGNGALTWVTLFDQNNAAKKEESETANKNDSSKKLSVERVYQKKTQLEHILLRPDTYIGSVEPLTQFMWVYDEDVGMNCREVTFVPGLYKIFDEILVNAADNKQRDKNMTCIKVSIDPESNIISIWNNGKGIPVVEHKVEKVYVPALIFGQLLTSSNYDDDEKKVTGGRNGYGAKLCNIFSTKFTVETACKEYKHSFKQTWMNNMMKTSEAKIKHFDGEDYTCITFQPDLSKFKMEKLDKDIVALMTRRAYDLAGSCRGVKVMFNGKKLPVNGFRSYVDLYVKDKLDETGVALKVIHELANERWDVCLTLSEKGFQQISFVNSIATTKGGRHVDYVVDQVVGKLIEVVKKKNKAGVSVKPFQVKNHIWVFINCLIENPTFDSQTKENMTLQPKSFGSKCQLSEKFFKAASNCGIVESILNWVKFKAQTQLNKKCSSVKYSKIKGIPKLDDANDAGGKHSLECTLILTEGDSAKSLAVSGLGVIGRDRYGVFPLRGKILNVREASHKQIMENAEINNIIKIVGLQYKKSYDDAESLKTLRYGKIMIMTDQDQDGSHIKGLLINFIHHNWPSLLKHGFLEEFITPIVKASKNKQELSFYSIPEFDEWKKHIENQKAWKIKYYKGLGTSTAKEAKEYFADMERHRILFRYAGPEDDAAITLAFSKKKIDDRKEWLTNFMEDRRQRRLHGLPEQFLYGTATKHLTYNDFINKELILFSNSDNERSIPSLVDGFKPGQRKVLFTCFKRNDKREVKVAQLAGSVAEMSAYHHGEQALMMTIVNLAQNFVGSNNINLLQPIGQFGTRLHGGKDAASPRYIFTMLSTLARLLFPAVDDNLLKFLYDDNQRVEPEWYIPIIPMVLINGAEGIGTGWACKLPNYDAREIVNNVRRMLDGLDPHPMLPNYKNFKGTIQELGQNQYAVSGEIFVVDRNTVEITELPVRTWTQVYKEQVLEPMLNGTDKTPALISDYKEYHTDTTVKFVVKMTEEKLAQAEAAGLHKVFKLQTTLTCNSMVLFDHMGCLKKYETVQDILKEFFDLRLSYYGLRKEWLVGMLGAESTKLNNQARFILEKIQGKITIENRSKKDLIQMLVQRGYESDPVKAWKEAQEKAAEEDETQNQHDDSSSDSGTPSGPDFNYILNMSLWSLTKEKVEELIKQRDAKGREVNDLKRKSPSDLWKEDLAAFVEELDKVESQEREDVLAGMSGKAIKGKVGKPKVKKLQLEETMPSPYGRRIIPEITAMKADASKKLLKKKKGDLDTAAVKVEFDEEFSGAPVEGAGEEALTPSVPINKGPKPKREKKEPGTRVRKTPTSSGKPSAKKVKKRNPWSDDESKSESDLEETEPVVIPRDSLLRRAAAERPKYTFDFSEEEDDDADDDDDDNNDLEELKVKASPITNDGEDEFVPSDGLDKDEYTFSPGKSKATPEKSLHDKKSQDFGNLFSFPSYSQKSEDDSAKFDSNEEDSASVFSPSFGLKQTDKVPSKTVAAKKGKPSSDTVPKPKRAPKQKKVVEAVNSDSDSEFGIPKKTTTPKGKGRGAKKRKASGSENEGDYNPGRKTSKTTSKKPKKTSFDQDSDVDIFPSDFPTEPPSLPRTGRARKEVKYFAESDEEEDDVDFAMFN

On to `Cc1[nH]c(C(=O)Nc2ccc(C(=O)NCCN)cc2OC(C)C)c(Cl)c1Cl.Cl`, for which the IC50 in data set [1] amounted to 6000 nM; in data set [2] it was 2800 nM. For the same compound, the solubility thermodynamic at 24 h in data set [3] turned out to be 16 µM. Further, the half-life at 100 µM in data set [4] was greater than 5 h. Besides, the outcome in the data set with COLO 205, in the data set with HCC 2998, in the data set on HCT-116, in the data set on HCT-15, with HT-29 and with KM12 was Active. The result in the data set with SW-620, with CCRF-CEM, in the data set with HL-60, with K562, in the data set with MOLT-4 and with SR was Active.

For the compound `Cc1[nH]c(C(=O)Nc2ccc(C(N)=O)cc2OCc2ccc(C(=O)NCCN)cc2)c(Cl)c1Cl.Cl.Cl`, the results for the 50% inhibitory concentration (IC50) (in data set [1]; on DNA topoisomerase 2-beta; at DNA topoisomerase 1) were 670 nM, 550 nM and greater than 5000 nM, respectively. Further, the solubility thermodynamic at 24 h in data set [3] came to 9.2 µM. The half-life at 100 µM in [4] was 1.67 h.

The record behind these values is ChEMBL document CHEMBL5346880, “ATP-competitive inhibitors of human DNA topoisomerase IIα with improved antiproliferative activity based on N-phenylpyrrolamide scaffold” (Eur J Med Chem, 2023).
